Assays:
[1] = system: normal human melanocyte; test: UVB-induced cell activation inhibition test using normal human melanocyte; type: cell-based; conditions: formazan (MTT) production ratio, UVB-irradiated DMSO negative control = 100%; UVB 5 mJ/cm^2; 100 mM in DMSO diluted 1,000 times; conditioned medium of normal human keratinocyte; mean of 3 samples
Experimental: The inhibitory effect of the compounds on the activation of melanocyte by activating factor produced and released from normal human keratinocyte by the ultraviolet B (UVB) was evaluated by using the index of the cell proliferation of normal human melanocyte.
Normal human keratinocyte (Kurabo Industries, Ltd.) were seeded by Humedia-KG2 medium (Kurabo Industries, Ltd.) at a concentration of 10×10^4 cells/well in 24-well plate. Then, cells were cultured for 24 hours.
The compound was dissolved at a concentration of 100 mM in DMSO, which was diluted 1,000 times with Humedia-KG2 medium and used as a sample solution. As for the positive control group, tranexamic acid was dissolved at a concentration of 100 mM in DMSO, which was diluted 1,000 times with Humedia-KG2 medium as a positive control sample solution. As for the negative control group, DMSO was diluted 1,000 times with Humedia-KG2 medium as a negative control sample solution.
The medium of normal human keratinocyte was exchanged with Humedia-KG2 medium (sample solution) containing the compound at a predetermined concentration and cells were cultured for further 24 hours. After that, the medium was exchanged with PBS (phosphate buffered saline), and cells were irradiated with the ultraviolet B (UVB) at 5 mJ/cm^2 by using an ultraviolet lamp (FL20S•E-30/DMR, Toshiba Medical Supply Co., Ltd.) as a light source. After the ultraviolet radiation, PBS was exchanged with the sample solution. Cells were cultured for further 24 hours, and then the conditioned medium was collected. Normal human melanocyte cells were seeded at the concentration of 3×10^4 cells/well in 96-well plate by a medium of Medium 254 (Kurabo Industries, Ltd.). Cells were cultured for 24 hours. After that, the medium was exchanged with the conditioned medium collected from normal human keratinocyte, and cells were cultured for further 24 hours. After 24 hours, the medium was exchanged with Humedia-KG2 medium containing 0.5 mg/mL of 3-(4,5-dimethyl-2-thiazoyl)-2,5-diphenyl-2H-tetrazolium bromide (MTT), and cultured for 3 hour.
The formazan amount was measured by the absorbances at 570 nm and 690 nm of cell lysate lysed with 2-propanol using a microplate reader (Benchmark Plus, Bio-Rad) by subtracting the absorbance at 690 nm from the absorbance at 570 nm.
The inhibitory effect of each compounds on melanocyte proliferation was calculated as the formazan production ratio (%) when the absorbance of negative control group, which was added DMSO and UVB irradiated, was defined as 100%.
Therefore, the small production ratio of formazan means that the inhibitory effect of the compounds is strong against the activation of melanocyte by the melanocyte activating factor released form keratinocyte.

[2] = system: pigmented guinea pigs; test: Ultraviolet ray-induced pigmentation suppression test using guinea pigs; type: in vivo, guinea pig
Description: The hair of the dorsal skin of each of eight pigmented guinea pigs was removed and shaved using an electrical hair clipper and shaver, and each of the sites was covered with a black cloth having a total of four (two on the top and bottom and two on the right and left) irradiation windows with a size of 2×2 cm, and then irradiated with ultraviolet rays of 300 mJ/cm^2 using FL20S•E30 lamp as a light source. The operation was repeated on days 1, 3, 5, and 8 after the start of the test to induce pigmentation on the four test sites. Compound 3 was dissolved in ethanol at a concentration of 0.5% (w/v) to prepare samples for application. Further, as a control, ethanol was used alone as a sample for application. On the 1st day of the test after the ultraviolet radiation, the application of samples was started. […] The skin brightness (L* value) of each of the test sites was measured by a colorimeter (CR-200, Konica Minolta Holdings, Inc.) before the ultraviolet radiation on the day of the start of application (day 1) and after 6 weeks (on the 43rd day of the test), and a ΔL* value was calculated by subtracting an L* value before the ultraviolet radiation from the L* value on 43rd day of the test. […] Therefore, it can be evaluated that, as the ΔL* value becomes larger (high numerical value), pigmentation is more inhibited.

SMILES | Melanocyte proliferation ratio Average (%) [1] [%] | ΔL* value ([2]; 0.5% (w/v) in ethanol, 30 μL once a day for 6 weeks, L* on 43rd day minus L* before UV (300 mJ/cm^2), average ± standard deviation of 8 animals, solvent control −10.07 ± 0.78) | suppression of ultraviolet-induced pigmentation (in words) ([2]; concentration of 0.5%, applied to the skin)
O=C(N[C@@H](CS(=O)(=O)O)C(=O)O)c1ccc(-c2ccccc2)cc1 [L-Isomer of Compound 5, N-(4-phenylbenzoyl)cysteic acid] | 79.0 | – | –
Cc1ccc(C(=O)NC(CCS(=O)(=O)O)C(=O)O)cc1 (racemic) [Compound 6, N-(p-toluoyl)homocysteic acid] | 71.3 | – | –
Cc1ccc(C(=O)N[C@@H](CS(=O)(=O)O)C(=O)O)cc1 [L-Isomer of Compound 3, N-(p-toluoyl)cysteic acid] | 58.4 | – | –
Cc1ccc(C(=O)NC(CS(=O)(=O)O)C(=O)O)cc1 [L-Isomer of Compound 3, N-(p-toluoyl)cysteic acid] | – | −8.88 ± 0.54 | clearly suppresses the pigmentation
Cc1cccc(C(=O)N[C@@H](CS(=O)(=O)O)C(=O)O)c1 [L-Isomer of Compound 2, N-(m-toluoyl)cysteic acid] | 77.0 | – | –
COc1ccc(C(=O)N[C@@H](CS(=O)(=O)O)C(=O)O)cc1 [L-Isomer of Compound 4, N-(p-methoxybenzoyl)cysteic acid] | 65.6 | – | –
NC[C@H]1CC[C@H](C(=O)O)CC1 [Tranexamic acid, reference compound] | 80.9 | – | –
Cc1ccccc1C(=O)N[C@@H](CS(=O)(=O)O)C(=O)O [L-Isomer of Compound 1, N-(o-Toluoyl)-L-cysteic acid] | 73.7 | – | –

Reference: patent publication US9066914B2, “Prophylactic or ameliorating agent for pigmentation” (POLA CHEMICAL INDUSTRIES INC., priority 2010, dated 2015)
